The source of these data is publication PMC9879182, “New benzothiazole hybrids as potential VEGFR-2 inhibitors: design, synthesis, anticancer evaluation, and in silico study” (Journal of Enzyme Inhibition and Medicinal Chemistry, 2023).

Read-outs that look alike come from different tables or passages of the source.

In series [1] the test system is HCT-116 (colorectal carcinoma). In words: MTT cytotoxicity assay, HCT-116. Format: cell-based. Conditions: Homo sapiens, mean ± SD, triplicate. The protocol: (§1) The in vitro anticancer activity of the new benzothiazole hybrids was evaluated by performing MTT assay as in the literature[51]^,[55]^,[56].
For series [2], the system named is HEPG-2 (hepatocellular carcinoma). In words: MTT cytotoxicity assay, HepG-2. Format: cell-based. The note with it: Homo sapiens, HepG2, mean ± SD, triplicate. The protocol:
as §1

The subject of series [3] is MCF-7 (breast cancer). Nature of the series: MTT cytotoxicity assay, MCF-7. Format: cell-based. The note with it: Homo sapiens, MCF7, mean ± SD, triplicate. As to the method:
as §1

Series [4] relates to WI-38 normal fibroblast cells. Nature of the series: MTT cytotoxicity against normal cells. Format: cell-based. The note with it: Homo sapiens, mean ± SD, triplicate. As to the method:
as §1
All tested compounds were studied for their cytotoxic activity on the WI-38 normal fibroblast WI-38 cells to assess their therapeutic safety.

For series [5], the target named is T1, VEGFR-2 (Homo sapiens, UniProt P35968).
T1 construct: VEGFR-2 enzyme assay was performed as reported[57]
Nature of the series: In vitro VEGFR-2 kinase inhibitory assay. The class given is biochemical. Conditions: for inhibition at 1 µM: VEGFR-2, compound at 1 μM; for inhibition at 10 µM: VEGFR-2, compound at 10 μM; for % Inhibition 10 nm: VEGFR-2, compound at 10 nm; for % Inhibition 100 nm: VEGFR-2, compound at 100 nm; for IC50: four concentrations 10 nM–10 μM.

For series [6], the system named is MCF-7 cells. In words: Flow cytometry cell cycle analysis (PI staining). Format: cell-based, human. Conditions: for Cell cycle distribution (%) G2-M / Cell cycle distribution (%) S / Cell cycle distribution (%) G0-G1: MCF-7, IC50 concentration, 24 h; for Cell cycle distribution (%) G2-M: control (DMSO) 10.19; for Cell cycle distribution (%) S: control (DMSO) 31.89; for Cell cycle distribution (%) G0-G1: control (DMSO) 57.92; for phase of cell cycle arrest: MCF-7, 24 h. As to the method:
It was carried out using MCF-7 cell lines stained with PI and analysed by FACS Calibur flow cytometer as reported[51]^,[58].
The cells were treated with DMSO as a control.

The test system of series [7] is MCF-7 cells. In words: Annexin V-FITC/PI apoptosis assay. The class given is cell-based, human. Conditions: MCF-7, 24 h; untreated control 0.59%. The protocol:
The extent of apoptosis was evaluated on MCF-7 cells and Annexin V-FITC/PI apoptosis detection kit following the reported method[51]^,[59].
The development of apoptosis inducers is highly attractive therapeutic strategy for the identification of powerful anticancer drugs[67]^,[68].

The subject of series [8] is HCT-116, HEPG-2, and MCF-7. Nature of the series: MTT cytotoxicity assay, range over the three cancer cell lines. Format: cell-based, human. The note with it: range over HCT-116, HEPG-2 and MCF-7, read-out: IC50 range towards the three cell lines. As to the method: as §1
Series [9] concerns the target T1, VEGFR-2. The note with it: cited from earlier work.

T1 sequence (P35968 20-1356): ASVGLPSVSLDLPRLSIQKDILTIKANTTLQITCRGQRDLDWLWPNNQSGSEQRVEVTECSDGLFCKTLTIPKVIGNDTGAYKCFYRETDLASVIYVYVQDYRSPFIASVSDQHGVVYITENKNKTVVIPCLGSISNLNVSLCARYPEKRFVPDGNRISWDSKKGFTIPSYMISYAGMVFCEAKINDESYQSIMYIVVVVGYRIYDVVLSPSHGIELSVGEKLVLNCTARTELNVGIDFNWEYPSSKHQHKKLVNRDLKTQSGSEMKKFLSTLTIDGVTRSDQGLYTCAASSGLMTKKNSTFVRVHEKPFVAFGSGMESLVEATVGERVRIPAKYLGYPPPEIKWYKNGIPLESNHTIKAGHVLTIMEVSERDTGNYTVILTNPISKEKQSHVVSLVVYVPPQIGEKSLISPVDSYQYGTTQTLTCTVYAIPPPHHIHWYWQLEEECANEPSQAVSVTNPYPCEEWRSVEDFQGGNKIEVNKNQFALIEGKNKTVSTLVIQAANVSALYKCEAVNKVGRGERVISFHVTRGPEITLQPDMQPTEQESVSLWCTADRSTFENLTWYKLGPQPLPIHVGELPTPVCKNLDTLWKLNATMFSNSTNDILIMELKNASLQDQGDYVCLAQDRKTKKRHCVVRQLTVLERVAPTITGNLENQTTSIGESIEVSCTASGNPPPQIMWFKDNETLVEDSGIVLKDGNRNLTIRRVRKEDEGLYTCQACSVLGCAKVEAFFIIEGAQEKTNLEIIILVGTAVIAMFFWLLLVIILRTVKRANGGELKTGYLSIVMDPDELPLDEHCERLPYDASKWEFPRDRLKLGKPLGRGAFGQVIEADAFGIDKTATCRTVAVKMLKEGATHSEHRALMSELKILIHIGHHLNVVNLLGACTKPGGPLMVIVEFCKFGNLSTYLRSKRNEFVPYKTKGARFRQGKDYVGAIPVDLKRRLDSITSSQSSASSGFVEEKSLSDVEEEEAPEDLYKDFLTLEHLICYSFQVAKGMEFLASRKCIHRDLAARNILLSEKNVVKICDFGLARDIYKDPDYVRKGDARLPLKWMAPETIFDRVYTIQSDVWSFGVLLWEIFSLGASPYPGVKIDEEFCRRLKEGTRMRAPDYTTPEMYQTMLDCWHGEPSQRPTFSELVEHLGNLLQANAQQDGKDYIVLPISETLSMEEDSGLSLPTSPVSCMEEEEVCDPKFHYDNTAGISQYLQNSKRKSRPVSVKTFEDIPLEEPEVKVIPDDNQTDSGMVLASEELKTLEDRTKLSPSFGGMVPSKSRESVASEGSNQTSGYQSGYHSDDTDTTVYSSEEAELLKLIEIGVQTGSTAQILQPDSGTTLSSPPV

On to `O=C(CN1C(=O)SC(=Cc2ccc(F)cc2)C1=O)Nc1nc2ccc([N+](=O)[O-])cc2s1` [4a, 2-(5-(4-Fluorobenzylidene)-2,4-dioxothiazolidin-3-yl)-N-(6-nitrobenzo[d]thiazol-2-yl)acetamide], for which, in [1], half-maximal inhibition (IC50) was put at 5.61 ± 0.3 µM. The compound further came in with an IC50 in [2] of 7.92 ± 0.6 µM. In addition, in [3], inhibition was half-maximal at 3.84 ± 0.1 µM (IC50). Further, in series [4], the concentration for half-maximal inhibition (IC50) worked out at 45.2 ± 2.6 µM. Also, in [5], the inhibition at 1 µM stood at 77.9%, the inhibition at 10 µM is 92%, the “% Inhibition 10 nm” value was 31.27% and the “% Inhibition 100 nm” value was 45.14%. For the same compound, in [5], the concentration for half-maximal inhibition (IC50) is 91 nM. In addition, in series [6], the “Cell cycle distribution (%) G2-M” value was 3.28%, the “Cell cycle distribution (%) S” value amounted to 49.85% and the “Cell cycle distribution (%) G0-G1” value came to 46.87%. In addition, the “ratio of total apoptotic cells (early and late apoptotic cells)” value (from here on “ratio of total apoptotic cells”) in [7] was found to be 49.71%. The IC50 in series [8] (Homo sapiens) is 3.84 to 9.04 µM.

Consider `COc1ccc(C=C2SC(=O)N(CC(=O)Nc3nc4ccc([N+](=O)[O-])cc4s3)C2=O)cc1` [4b, 2-(5-(4-Methoxybenzylidene)-2,4-dioxothiazolidin-3-yl)-N-(6-nitrobenzo[d]thiazol-2-yl)acetamide], for which the 50% inhibitory concentration (IC50) in series [1] was 29.9 ± 2.2 µM; in [2], 34.7 ± 2.4 µM; in series [3], 22.3 ± 1.7 µM; in series [4], 77.6 ± 4.3 µM; in [8] (Homo sapiens), 22.3 to 34.7 µM.

Consider `O=C(CN1C(=O)SC(=Cc2ccc(Br)cc2)C1=O)Nc1nc2ccc([N+](=O)[O-])cc2s1` [4c, 2-(5-(4-Bromobenzylidene)-2,4-dioxothiazolidin-3-yl)-N-(6-nitrobenzo[d]thiazol-2-yl)acetamide], for which the IC50 in [1] is 47.9 ± 2.9 µM; in [2] it was 65.5 ± 3.6 µM; in series [3] it was 50.1 ± 2.9 µM; in series [4] it was 28.9 ± 2.2 µM; in series [8] (Homo sapiens), 47.9 to 65.5 µM.

Compound `Cc1ccc(C=C2SC(=O)N(CC(=O)Nc3nc4ccc([N+](=O)[O-])cc4s3)C2=O)cc1` [4d, 2-(5-(4-Methylbenzylidene)-2,4-dioxothiazolidin-3-yl)-N-(6-nitrobenzo[d]thiazol-2-yl)acetamide] yielded a melting point of 201 to 203 °C. In series [1], this compound yielded an IC50 of 26.8 ± 2.1 µM. The compound also yielded an IC50 in series [2] of 21.1 ± 1.8 µM. In series [3], the IC50 was found to be 15.5 ± 1.2 µM. In series [4], this compound yielded an IC50 of 74 ± 4.1 µM. The 50% inhibitory concentration (IC50) in series [8] (Homo sapiens) lay within 15.5 to 26.8 µM.

`COc1cc(C=C2SC(=O)N(CC(=O)Nc3nc4ccc([N+](=O)[O-])cc4s3)C2=O)cc(OC)c1OC` [4e, 2-(2,4-Dioxo-5–(3,4,5-trimethoxybenzylidene)thiazolidin-3-yl)-N-(6-nitrobenzo[d]thiazol-2-yl)acetamide] showed a concentration for half-maximal inhibition (IC50) in [1] of 8.24 ± 0.6 µM. In addition, in [2], the concentration for half-maximal inhibition (IC50) was determined as 9.04 ± 0.8 µM. Besides, 6.11 ± 0.4 µM corresponded to half-maximal inhibition in [3] (IC50). Besides, in series [4], the IC50 turned out to be 32.8 ± 2.3 µM. In [5], testing at 1 µM gave an inhibition of 70.5%, 10 µM produced 88.7% inhibition, the “% Inhibition 10 nm” value was 24.09% and the “% Inhibition 100 nm” value is 42.84%. The compound also had an IC50 in series [5] of 161 nM. In [6], the “phase of cell cycle arrest” value is “S phase”, the “Cell cycle distribution (%) G2-M” value is on record as 4.99%, the “Cell cycle distribution (%) S” value was found to be 42.66% and the “Cell cycle distribution (%) G0-G1” value is recorded as 52.35%. Also, in series [7], the “ratio of total apoptotic cells” value came out at 42.17%. The half-inhibitory concentration (IC50) in series [8] (Homo sapiens) is 3.84 to 9.04 µM. In addition, the IC50 in [8] was 6.11 to 9.04 µM.

Consider `Cc1ccc(-c2nc(SCC(=O)Nc3nc4ccc([N+](=O)[O-])cc4s3)[nH]c(=O)c2C#N)cc1` [8a], for which the concentration for half-maximal inhibition (IC50) in series [1] amounted to 13.9 ± 1 µM. In series [2], this compound came in with an IC50 of 18.1 ± 1.4 µM. The compound further had a concentration for half-maximal inhibition (IC50) in series [3] of 10.9 ± 0.8 µM. In [4], the IC50 is 53.1 ± 3.1 µM. Further, in series [5], the inhibition at 1 µM was found to be 70.1%, at 10 µM the inhibition was 83.5%, the “% Inhibition 10 nm” value stood at 16.31% and the “% Inhibition 100 nm” value came to 37.14%. The same compound had an IC50 in series [5] of 266 nM. Further, in series [6], the “phase of cell cycle arrest” value is “G1/S phase”, the “Cell cycle distribution (%) G2-M” value was 2.53%, the “Cell cycle distribution (%) S” value worked out at 36.11% and the “Cell cycle distribution (%) G0-G1” value was 61.36%. The “ratio of total apoptotic cells” value in [7] was 30.75%. Besides, the concentration for half-maximal inhibition (IC50) in series [8] (Homo sapiens) lay within 10.9 to 18.1 µM.

`CNC(=O)c1cc(Oc2ccc(NC(=O)Nc3ccc(Cl)c(C(F)(F)F)c3)cc2)ccn1` [SOR, Sorafenib, reference compound]: the IC50 in series [1] stood at 5.23 ± 0.3 µM; in series [2], 4.5 ± 0.2 µM; in series [3], 4.17 ± 0.2 µM; in series [4] it was 6.72 ± 0.5 µM.

As to `O=C(CN1C(=O)S/C(=C\c2ccc(F)cc2)C1=O)Nc1nc2ccccc2s1` [X], in series [9], the half-inhibitory concentration (IC50) is 0.19 µM.
